Non-standard residues stand in square brackets, D forms with d. No end group written: not given here. Aib = CC(C)(N)C(=O)O
What was measured:
[1] = Stability of peptide/phospholipid complexes by visual inspection; format: physicochemical; conditions: SM, PC/SM 70/30
Experimental: Separate stock solutions of peptide and phospholipids were prepared in a solvent mixture composed of 80% tert-butyl alcohol (TBA) and 20% water to obtain separate solutions of 10 mM peptide, 20 mM 1,2-dioleoyl-sn-glycero-3-phosphocholine (DOPC) or 20 mM 1-palmitoyl-2-oleoyl-phosphatidylcholine (POPC) and 20 mM egg SM. Aliquots of stock solution were combined to obtain a final solution containing 10 mole equivalents of peptide, 42 mole equivalents of phosphatidylcholine and 18 mole equivalents of SM. The solutions were combined in a 1.5 ml glass vial, frozen (−70° C.), and lyophilized at −5 to −10° C. overnight. The resultant lyophilized cakes were rehydrated by addition of Dulbeco's phosphate buffered saline followed by gentle swirling of the contents. Formation of PALM was completed by incubating the PALM solution at 50° C. for 10 minutes. […] The qualities of the PALM preparations were evident in their appearance. A visually clear preparation indicated any nanoparticles that had formed were less than approximately 20 nm diameter.

BHK(SR-BI) cells = assay: DiI uptake from PALM or HDL by BHK(SR-BI) cells, SR-BI un-induced or induced; format: cell-based, hamster; conditions: for Increase Over Un-induced: DiI uptake, induced vs un-induced cells; for Induced DiI Uptake: SR-BI induced (10 nM mifepristone) BHK(SR-BI) cells; for Induced DiI Uptake / Un-induced DiI Uptake: 4 hours, mean ± SEM, n = 4; for Un-induced DiI Uptake: un-induced BHK(SR-BI) cells, relative to protein (HDL) or peptide (PALM) concentration
Experimental: SR-BI interaction studies are done with BHK(SR-BI) cells obtained from the NIH. The cells were stably transfected with an inducible human SR-BI gene by means of the GeneSwitch™ System (Invitrogen). The cells were plated (96-well plate) (8000 cells/well) in growth medium (Dulbeco's modified Eagle medium containing 10% fetal bovine serum) containing 200 ug/ml each of zeocin and hygromycin. After 24 hours incubation, the growth medium was removed and replaced with 0.2% bovine serum albumin in Dulbeco's modified Eagle medium. The medium of cells to be induced for SR-BI expression also contained 10 nM mifepristone, added from a DMSO stock solution. DMSO alone was added to the medium of uninduced cells. The induction medium was removed after 24 hours and replaced with medium containing DiI-labeled PALM (32 μg peptide/ml) or DiI-labeled HDL (19 μg protein/ml) (Kalen Biomedical, Montgomery Village, Md.). The test media were prepared by diluting an aliquot of Di-I-labeled PALM (Example 5) or the DiI-labeled HDL in 0.2% bovine serum albumin in Dulbeco's modified Eagle medium. The solutions were passed through 0.2 μm pore size, polyethersulfone, sterilization filters before use. The cells were incubated for 4 hours. Next, the cells were washed 3 times with 0.1% albumin in Dulbeco's phosphate buffered saline (with calcium and magnesium). The last wash was replaced with 200 ul/well of t-butanol/water (95%/5%). The covered plate was left to stand at ROOM TEMPERATURE for 30 min with occasional shaking. The fluorescence in each well was detected at 520 nm excitation and 580 nm emission with a 550 nm cutoff filter on a Molecular Dynamics Gemini fluorescence plate reader (FIG. 9).

| Substance | Stability by visual inspection (appearance) ([1]; POPC, C16PTX/PL mole ratio 0) | Stability by visual inspection (appearance) ([1]; POPC, C16PTX/PL mole ratio 0.1) | Increase Over Un-induced (BHK(SR-BI) cells) | Induced DiI Uptake (BHK(SR-BI) cells) | Un-induced DiI Uptake (BHK(SR-BI) cells) | Stability by visual inspection (appearance) ([1]; DOPC, C16PTX/PL mole ratio 0) | Stability by visual inspection (appearance) ([1]; DOPC, C16PTX/PL mole ratio 0.1) |
| --- | --- | --- | --- | --- | --- | --- | --- |
| DVFQKLVELFNQLLEKWKQV [SEQ ID NO: 26] | Clear | Turbid | 65% | 0.81 ± 0.04 pmol/µg/mL | 0.49 ± 0.04 pmol/µg/mL | – | – |
| DV{AIB}QKLFELFNQLLEKWKQV (DV[Aib]QKLFELFNQLLEKWKQV) [SEQ ID NO: 27] | Clear | Turbid | 90% | 0.66 ± 0.02 pmol/µg/mL | 0.34 ± 0.01 pmol/µg/mL | Turbid | – |
| DVFQKL{AIB}ELFNQLLEKWKQV (DVFQKL[Aib]ELFNQLLEKWKQV) [SEQ ID NO: 25] | Clear | Clear | 245% | 0.83 ± 0.02 pmol/µg/mL | 0.24 ± 0.01 pmol/µg/mL | Clear | Clear |
| DVFQKL{AIB}ELFNQL{AIB}EKWKQV (DVFQKL[Aib]ELFNQL[Aib]EKWKQV) [SEQ ID NO: 35] | – | – | 264% | 1.26 ± 0.06 pmol/µg/mL | 0.35 ± 0.01 pmol/µg/mL | – | – |
| DVFQ{AIB}LKELFNQLLEKWKQV (DVFQ[Aib]LKELFNQLLEKWKQV) [SEQ ID NO: 3] | – | – | 88% | 0.29 ± 0.03 pmol/µg/mL | 0.16 ± 0.01 pmol/µg/mL | – | – |
| DVFQ{AIB}LKELLNQLLEKFKQV (DVFQ[Aib]LKELLNQLLEKFKQV) [SEQ ID NO: 5] | – | – | 73% | 0.93 ± 0.03 pmol/µg/mL | 0.54 ± 0.03 pmol/µg/mL | – | – |
| DV{AIB}QKFLELFNQLLEKWKQV (DV[Aib]QKFLELFNQLLEKWKQV) [SEQ ID NO: 32] | Clear | Turbid | 221% | 0.90 ± 0.03 pmol/µg/mL | 0.28 ± 0.02 pmol/µg/mL | Turbid | Turbid |

Source: patent US10532105B2, “Formulations for improving the efficacy of hydrophobic drugs” (Peptinovo Biopharma, LLC, priority 2015, dated 2020)
